Data reported in ChEMBL document CHEMBL1156766, “Chloro-substituted 3-alkylamino-4H-1,2,4-benzothiadiazine 1,1-dioxides as ATP-sensitive potassium channel activators: impact of the position of the chlorine atom on the aromatic ring on activity and tissue selectivity” (J Med Chem, 2010).
The source made the active and inactive calls. No cut-off for these calls is given here.

Columns and labels:
[1] = Inhibition of glucose-induced insulin secretion in rat pancreatic islets assessed as residual insulin release at 50 uM; assay type: functional, Pancreatic islet
[2] = Increase in 86Rb outflow in perfused rat pancreatic islets at 10 uM in presence of extracellular calcium and glucose; assay type: functional, Pancreatic islet
Aorta = test: Myorelaxant activity in rat aortic ring assessed as inhibition of KCL-induced contraction; assay type: functional, tissue-based
[3] = Inhibition of glucose-induced insulin secretion in rat pancreatic islets assessed as residual insulin release at 10 uM; assay type: functional, Pancreatic islet
[4] = Inhibition of glucose-induced insulin secretion in rat pancreatic islets assessed as residual insulin release at 1 uM; assay type: functional, Pancreatic islet
[5] = target: Sulfonylurea receptor 1, Kir6.2 (Homo sapiens) (UniProt Q14654+Q09428); test: Activation of human recombinant SUR1/Kir6.2 channel expressed in HEK293 cells assessed as increase in ionic current by whole cell patch clamp assay in presence of KATP channel blocker Tolbutamide; assay type: cell-based
[6] = target: Sulfonylurea receptor 1, Kir6.2 (Homo sapiens, UniProt Q09428+Q14654); test: Activation of human recombinant SUR1/Kir6.2 channel expressed in HEK293 cells assessed as increase in ionic current by whole cell patch clamp assay; assay type: cell-based
Sequence of Sulfonylurea receptor 1, Kir6.2 (Q14654 whole entry): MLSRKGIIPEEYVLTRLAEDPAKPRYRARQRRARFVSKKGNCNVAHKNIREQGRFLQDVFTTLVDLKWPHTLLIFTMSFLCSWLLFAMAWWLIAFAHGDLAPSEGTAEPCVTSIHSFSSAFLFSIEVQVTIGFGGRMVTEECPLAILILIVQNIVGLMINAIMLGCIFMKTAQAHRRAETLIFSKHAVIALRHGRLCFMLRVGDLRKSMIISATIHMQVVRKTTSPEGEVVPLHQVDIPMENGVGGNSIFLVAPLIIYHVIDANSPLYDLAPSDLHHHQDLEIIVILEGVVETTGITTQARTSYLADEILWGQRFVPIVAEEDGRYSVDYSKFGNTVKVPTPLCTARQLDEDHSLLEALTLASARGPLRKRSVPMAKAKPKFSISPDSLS
Sequence of Sulfonylurea receptor 1, Kir6.2 (Q09428 whole entry): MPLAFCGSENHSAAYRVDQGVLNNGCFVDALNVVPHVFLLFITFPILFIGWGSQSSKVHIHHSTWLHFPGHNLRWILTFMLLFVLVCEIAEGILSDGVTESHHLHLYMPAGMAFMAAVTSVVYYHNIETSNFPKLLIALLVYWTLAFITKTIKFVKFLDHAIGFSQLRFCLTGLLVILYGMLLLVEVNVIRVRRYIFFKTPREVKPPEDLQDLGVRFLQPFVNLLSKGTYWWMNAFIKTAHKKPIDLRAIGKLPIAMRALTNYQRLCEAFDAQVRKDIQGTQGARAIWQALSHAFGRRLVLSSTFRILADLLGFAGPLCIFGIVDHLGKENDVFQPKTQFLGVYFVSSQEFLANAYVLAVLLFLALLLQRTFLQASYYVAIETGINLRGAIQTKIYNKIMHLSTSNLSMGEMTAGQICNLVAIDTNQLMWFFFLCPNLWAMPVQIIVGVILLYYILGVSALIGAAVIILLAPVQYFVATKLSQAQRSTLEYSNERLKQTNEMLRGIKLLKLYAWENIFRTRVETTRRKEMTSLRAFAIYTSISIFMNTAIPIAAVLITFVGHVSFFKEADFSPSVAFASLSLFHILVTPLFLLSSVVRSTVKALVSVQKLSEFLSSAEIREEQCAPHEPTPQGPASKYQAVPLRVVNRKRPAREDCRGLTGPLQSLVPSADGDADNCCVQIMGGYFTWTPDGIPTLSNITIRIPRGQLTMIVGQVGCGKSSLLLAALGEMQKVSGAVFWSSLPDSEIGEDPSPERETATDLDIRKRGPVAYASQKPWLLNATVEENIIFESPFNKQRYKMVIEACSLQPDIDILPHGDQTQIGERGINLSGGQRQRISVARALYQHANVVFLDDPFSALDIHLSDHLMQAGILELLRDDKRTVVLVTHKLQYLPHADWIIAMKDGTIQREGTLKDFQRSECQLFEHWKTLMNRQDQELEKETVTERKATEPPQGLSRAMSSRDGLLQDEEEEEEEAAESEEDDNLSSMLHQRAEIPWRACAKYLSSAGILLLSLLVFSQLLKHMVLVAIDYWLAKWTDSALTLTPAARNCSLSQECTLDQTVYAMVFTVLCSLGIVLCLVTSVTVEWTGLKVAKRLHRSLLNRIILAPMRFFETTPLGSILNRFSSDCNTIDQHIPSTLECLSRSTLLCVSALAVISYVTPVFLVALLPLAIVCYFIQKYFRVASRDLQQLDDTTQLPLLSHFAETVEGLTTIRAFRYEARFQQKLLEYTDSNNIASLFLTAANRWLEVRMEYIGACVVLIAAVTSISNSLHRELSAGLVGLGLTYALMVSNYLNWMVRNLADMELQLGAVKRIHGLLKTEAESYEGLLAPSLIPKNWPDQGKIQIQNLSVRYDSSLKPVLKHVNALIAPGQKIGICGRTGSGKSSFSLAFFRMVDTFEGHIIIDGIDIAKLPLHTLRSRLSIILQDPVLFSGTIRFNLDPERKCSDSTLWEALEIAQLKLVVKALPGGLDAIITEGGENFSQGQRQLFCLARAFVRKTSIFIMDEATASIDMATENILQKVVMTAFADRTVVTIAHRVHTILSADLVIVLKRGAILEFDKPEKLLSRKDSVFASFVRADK

[7] = Ratio of EC50 for rat aortic ring to IC50 for rat pancreatic islets; assay type: functional, Aorta
[8] = Inhibition of glucose-induced insulin secretion in rat pancreatic islets assessed as residual insulin release; assay type: functional, cell-based; details: Pancreatic islet
[9] = Dissociation constant, pKa of the compound; assay type: physicochemical
[10] = Inhibition of glucose-induced insulin secretion in rat pancreatic islets assessed as residual insulin release at 0.1 uM; assay type: functional, Pancreatic islet

| Compound | Activity [1] [%] | EC50 (Aorta) [µM] | Activity [3] [%] | Activity [4] [%] | other results |
| --- | --- | --- | --- | --- | --- |
| O=S1(=O)N=C(NC2CCC2)Nc2cc(Cl)ccc21 | 9.58 | > 300 | 11.27 | 66.17 | Activity [2]: 1.45 %/min; Activity [5]: inactive |
| O=S1(=O)NC(NC2CCC2)=Nc2cc(Cl)ccc21 |  |  |  |  | EC50 [6]: 0.08 µM |
| CCNC1=NS(=O)(=O)c2cccc(Cl)c2N1 | 80.4 | 90.4 |  |  |  |
| O=S1(=O)N=C(NC2CC2)Nc2ccc(Cl)cc21 | 5.82 | 190 | 26.56 | 84 |  |
| O=S1(=O)N=C(NC2CCC2)Nc2ccc(Cl)cc21 | 8.11 |  | 6.44 | 60.19 | Ratio EC50 [7]: 75; IC50 [8]: 0.48 µM |
| CC(C)NC1=NS(=O)(=O)c2cc(Cl)c(Cl)cc2N1 | 4.96 |  | 6.29 | 13.19 |  |
| CC(C)NC1=NS(=O)(=O)c2cccc(Cl)c2N1 | 96.88 | > 300 |  |  | pKa [9]: 9.11 |
| O=S1(=O)N=C(NC2CCC2)Nc2cccc(Cl)c21 |  | > 30 | 30.23 | 77.56 |  |
| CCNC1=NS(=O)(=O)c2c(Cl)cccc2N1 |  | > 300 | 37.55 | 95.72 |  |
| CC(C)NC1=NS(=O)(=O)c2cc(Cl)ccc2N1 | 5.66 |  | 4.84 | 36.19 | Activity [10]: 90.41% |
| CC(C)NC1=NS(=O)(=O)c2ccc(Cl)cc2N1 | 6.38 | 53.4 | 7.51 | 13.2 | Ratio EC50 [7]: 230; Activity [10]: 76.72%; IC50 [8]: 0.23 µM; pKa [9]: 9.35 |
| O=S1(=O)N=C(NC2CC2)Nc2cc(Cl)ccc21 | 7.97 | 156 | 12.74 | 93.02 |  |
| O=S1(=O)N=C(NC2CCC2)Nc2c(Cl)cccc21 | 102.55 | 126 |  |  |  |
| CCCNC1=NS(=O)(=O)c2ccc(Cl)cc2N1 | 8.74 | 73.2 | 14.45 | 71.5 |  |
| CCNC1=NS(=O)(=O)c2ccc(Cl)cc2N1 |  | 54.8 | 9.55 | 21.7 |  |
| CCNC1=NS(=O)(=O)c2cc(Cl)ccc2N1 | 2.09 |  | 10.65 | 40.79 |  |
| CCCNC1=NS(=O)(=O)c2cccc(Cl)c2N1 | 94.69 | 180 |  |  |  |
| CCCNC1=NS(=O)(=O)c2cc(Cl)ccc2N1 | 3.56 |  | 14.24 | 83.41 |  |
